Earlier results as cited in patent US20090196923A1, “CONTROLLED RELEASE FORMULATION COMPRISING ANTI-EPILEPTIC DRUGS” (priority 2006, published 2009).

- water solubility: poor water solubility
SMILES: NC(=O)N1c2ccccc2CC(=O)c2ccccc21 [Oxcarbazepine, 10, 11-dihydro-10-oxocarbamazepine]
